Source: patent publication US8802597B2, “Herbicidal pyrimidines” (E I du Pont de Nemours and Company, priority 2003, dated 2014)

Experiments:
Assay in all cases: Test C pre/postemergence
Type in all cases: in vivo
[1] = system: Surinam grass (Brachiaria decumbens); conditions: for Plant response rating, Surinam Grass: Preemergence
How it was run: (§1)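 Seeds sown and sprayed preemergence with test compound in non-phytotoxic solvent containing surfactant; postemergence sprays, same formulation, went onto plants 2 to 18 cm tall (1- to 4-leaf stage). Plants held in greenhouse 12 to 14 days, then visually rated against untreated controls on a 0–100 scale (0 no effect, 100 complete control).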

[2] = system: cocklebur (Xanthium strumarium); conditions: for Plant response rating, Cocklebur: Preemergence
How it was run: as §1

[3] = system: common (oilseed) sunflower (Helianthus annuus); conditions: Preemergence
How it was run: as §1

[4] = system: common ragweed (Ambrosia elatior); conditions: for Plant response rating, Ragweed: Preemergence
How it was run: as §1

corn (Zea mays) = conditions: for Plant response rating, Corn: Preemergence
How it was run: as §1

[5] = system: crabgrass (Digitaria sanguinalis); conditions: for Plant response rating, Crabgrass: Preemergence
How it was run: as §1

[6] = system: goosegrass (Eleusine indica); conditions: for Plant response rating, Goosegrass: Preemergence
How it was run: as §1

[7] = system: lambsquarters (Chenopodium album); conditions: for Plant response rating, Lambsquarters: Preemergence
How it was run: as §1

[8] = system: pigweed (Amaranthus retroflexus); conditions: for Plant response rating, Pigweed: Preemergence
How it was run: as §1

[9] = system: velvetleaf (Abutilon theophrasti); conditions: for Plant response rating, Velvetleaf: Preemergence
How it was run: as §1

[10] = system: yellow nutsedge (Cyperus esculentus); conditions: for Plant response rating, Nutsedge, Yellow: Preemergence
How it was run: as §1

kochia (Kochia scoparia) = conditions: Bassia scoparia, post-emergence, Postemergence
How it was run: as §1

[11] = 62 g ai/ha, scale 0 to 100, 0 no effect, 100 complete control

## CCOC(=O)c1nc(C2CC2)nc(N=CN(C)C)c1Br [Compound 40]
[1]; 125 g ai/ha, scale 0 to 100
  Plant response rating, Surinam Grass: 0
[1]; 250 g ai/ha, scale 0 to 100
  Plant response rating, Surinam Grass: 10
[1]; 500 g ai/ha, scale 0 to 100
  Plant response rating, Surinam Grass: 90
[2]; [11]
  Plant response rating, Cocklebur: 5
[2]; 125 g ai/ha, scale 0 to 100
  Plant response rating, Cocklebur: 70
[2]; 250 g ai/ha, scale 0 to 100
  Plant response rating, Cocklebur: 90
[2]; 500 g ai/ha, scale 0 to 100
  Plant response rating, Cocklebur: 100
[3]; [11]
  Plant response rating, Sunflower: 5
[3]; 125 g ai/ha, scale 0 to 100
  Plant response rating, Sunflower: 90
[3]; 250 g ai/ha, scale 0 to 100
  Plant response rating, Sunflower: 90
[3]; 500 g ai/ha, scale 0 to 100
  Plant response rating, Sunflower: 95
[4]; [11]
  Plant response rating, Ragweed: 90
[4]; 125 g ai/ha, scale 0 to 100
  Plant response rating, Ragweed: 90
[4]; 250 g ai/ha, scale 0 to 100
  Plant response rating, Ragweed: 100
[4]; 500 g ai/ha, scale 0 to 100
  Plant response rating, Ragweed: 100
Corn (Zea mays); [11]
  Plant response rating, Corn: 0
Corn (Zea mays); 125 g ai/ha, scale 0 to 100
  Plant response rating, Corn: 20
Corn (Zea mays); 250 g ai/ha, scale 0 to 100
  Plant response rating, Corn: 20
Corn (Zea mays); 500 g ai/ha, scale 0 to 100
  Plant response rating, Corn: 40
[5]; [11]
  Plant response rating, Crabgrass: 5
[5]; 500 g ai/ha, scale 0 to 100
  Plant response rating, Crabgrass: 100
[6]; [11]
  Plant response rating, Goosegrass: 0
[6]; 125 g ai/ha, scale 0 to 100
  Plant response rating, Goosegrass: 0
[6]; 250 g ai/ha, scale 0 to 100
  Plant response rating, Goosegrass: 5
[6]; 500 g ai/ha, scale 0 to 100
  Plant response rating, Goosegrass: 40
[7]; [11]
  Plant response rating, Lambsquarters: 100
[7]; 125 g ai/ha, scale 0 to 100
  Plant response rating, Lambsquarters: 100
[7]; 250 g ai/ha, scale 0 to 100
  Plant response rating, Lambsquarters: 100
[7]; 500 g ai/ha, scale 0 to 100
  Plant response rating, Lambsquarters: 100
[8]; [11]
  Plant response rating, Pigweed: 20
[8]; 125 g ai/ha, scale 0 to 100
  Plant response rating, Pigweed: 100
[8]; 250 g ai/ha, scale 0 to 100
  Plant response rating, Pigweed: 100
[8]; 500 g ai/ha, scale 0 to 100
  Plant response rating, Pigweed: 100
[9]; [11]
  Plant response rating, Velvetleaf: 0
[9]; 125 g ai/ha, scale 0 to 100
  Plant response rating, Velvetleaf: 70
[9]; 250 g ai/ha, scale 0 to 100
  Plant response rating, Velvetleaf: 90
[9]; 500 g ai/ha, scale 0 to 100
  Plant response rating, Velvetleaf: 100
[10]; [11]
  Plant response rating, Nutsedge, Yellow: 0
[10]; 125 g ai/ha, scale 0 to 100
  Plant response rating, Nutsedge, Yellow: 0
[10]; 250 g ai/ha, scale 0 to 100
  Plant response rating, Nutsedge, Yellow: 0
[10]; 500 g ai/ha, scale 0 to 100
  Plant response rating, Nutsedge, Yellow: 0

## CCOC(=O)c1nc(C2CC2)nc(NN)c1Br [Compound 42]
[1]; Urochloa decumbens, post-emergence, Postemergence, 125 g ai/ha, scale 0 to 100 (0 no effect, 100 complete control), read-out: Surinam Grass plant response rating
  pest or weed control at 125 g/ha: 0%
[1]; Urochloa decumbens, post-emergence, Postemergence, 31 g ai/ha, read-out: Plant response rating (scale of 0 to 100), Surinam Grass
  pest or weed control at 31 g/ha: 0%
[1]; Urochloa decumbens, post-emergence, Postemergence, 62 g ai/ha, scale 0 to 100 (0 no effect, 100 complete control), read-out: Surinam Grass plant response rating
  pest or weed control at 62 g/ha: 0%
[1]; Urochloa decumbens, post-emergence, Postemergence, 250 g ai/ha, scale 0 to 100, read-out: Plant response rating, Surinam Grass
  pest or weed control at 250 g/ha: 0%
[2]; Xanthium strumarium, post-emergence, Postemergence, 31 g ai/ha, read-out: Plant response rating (scale of 0 to 100), Cocklebur
  pest or weed control at 31 g/ha: 0%
[2]; Xanthium strumarium, post-emergence, Postemergence, 62 g ai/ha, scale 0 to 100 (0 no effect, 100 complete control), read-out: Cocklebur plant response rating
  pest or weed control at 62 g/ha: 0%
[2]; Xanthium strumarium, post-emergence, Postemergence, 125 g ai/ha, scale 0 to 100 (0 no effect, 100 complete control), read-out: Cocklebur plant response rating
  pest or weed control at 125 g/ha: 5%
[2]; Xanthium strumarium, post-emergence, Postemergence, 250 g ai/ha, scale 0 to 100, read-out: Plant response rating, Cocklebur
  pest or weed control at 250 g/ha: 20%
[4]; Ambrosia artemisiifolia, post-emergence, Postemergence, 31 g ai/ha, read-out: Plant response rating (scale of 0 to 100), Ragweed
  pest or weed control at 31 g/ha: 0%
[4]; Ambrosia artemisiifolia, post-emergence, Postemergence, 62 g ai/ha, scale 0 to 100 (0 no effect, 100 complete control), read-out: Ragweed plant response rating
  pest or weed control at 62 g/ha: 10%
[4]; Ambrosia artemisiifolia, post-emergence, Postemergence, 125 g ai/ha, scale 0 to 100 (0 no effect, 100 complete control), read-out: Ragweed plant response rating
  pest or weed control at 125 g/ha: 40%
[4]; Ambrosia artemisiifolia, post-emergence, Postemergence, 250 g ai/ha, scale 0 to 100, read-out: Plant response rating, Ragweed
  pest or weed control at 250 g/ha: 40%
Corn (Zea mays); Zea mays, post-emergence, Postemergence, 31 g ai/ha, read-out: Plant response rating (scale of 0 to 100), Corn
  Corn plant response rating (crop injury, 0 = no effect, 100 = complete kill) at 31 g/ha: 0%
Corn (Zea mays); Zea mays, post-emergence, Postemergence, 62 g ai/ha, scale 0 to 100 (0 no effect, 100 complete control), read-out: Corn plant response rating
  Corn plant response rating (crop injury, 0 = no effect, 100 = complete kill) at 62 g/ha: 0%
Corn (Zea mays); Zea mays, post-emergence, Postemergence, 125 g ai/ha, scale 0 to 100 (0 no effect, 100 complete control), read-out: Corn plant response rating
  Corn plant response rating (crop injury, 0 = no effect, 100 = complete kill) at 125 g/ha: 0%
Corn (Zea mays); Zea mays, post-emergence, Postemergence, 250 g ai/ha, scale 0 to 100
  Corn plant response rating (crop injury, 0 = no effect, 100 = complete kill) at 250 g/ha: 0%
[5]; Digitaria sanguinalis, post-emergence, Postemergence, 31 g ai/ha, read-out: Plant response rating (scale of 0 to 100), Crabgrass
  pest or weed control at 31 g/ha: 0%
[5]; Digitaria sanguinalis, post-emergence, Postemergence, 62 g ai/ha, scale 0 to 100 (0 no effect, 100 complete control), read-out: Crabgrass plant response rating
  pest or weed control at 62 g/ha: 0%
[5]; Digitaria sanguinalis, post-emergence, Postemergence, 125 g ai/ha, scale 0 to 100 (0 no effect, 100 complete control), read-out: Crabgrass plant response rating
  pest or weed control at 125 g/ha: 0%
[5]; Digitaria sanguinalis, post-emergence, Postemergence, 250 g ai/ha, scale 0 to 100, read-out: Plant response rating, Crabgrass
  pest or weed control at 250 g/ha: 0%
[6]; Eleusine indica, post-emergence, Postemergence, 31 g ai/ha, read-out: Plant response rating (scale of 0 to 100), Goosegrass
  pest or weed control at 31 g/ha: 0%
[6]; Eleusine indica, post-emergence, Postemergence, 62 g ai/ha, scale 0 to 100 (0 no effect, 100 complete control), read-out: Goosegrass plant response rating
  pest or weed control at 62 g/ha: 0%
[6]; Eleusine indica, post-emergence, Postemergence, 125 g ai/ha, scale 0 to 100 (0 no effect, 100 complete control), read-out: Goosegrass plant response rating
  pest or weed control at 125 g/ha: 0%
[6]; Eleusine indica, post-emergence, Postemergence, 250 g ai/ha, scale 0 to 100, read-out: Plant response rating, Goosegrass
  pest or weed control at 250 g/ha: 0%
Kochia (Kochia scoparia); 31 g ai/ha, read-out: Plant response rating (scale of 0 to 100), Kochia
  pest or weed control at 31 g/ha: 5%
Kochia (Kochia scoparia); 62 g ai/ha, scale 0 to 100 (0 no effect, 100 complete control), read-out: Kochia plant response rating
  pest or weed control at 62 g/ha: 30%
Kochia (Kochia scoparia); 125 g ai/ha, scale 0 to 100 (0 no effect, 100 complete control), read-out: Kochia plant response rating
  pest or weed control at 125 g/ha: 50%
Kochia (Kochia scoparia); 250 g ai/ha, scale 0 to 100, read-out: Plant response rating, Kochia
  pest or weed control at 250 g/ha: 85%
[7]; Chenopodium album, post-emergence, Postemergence, 31 g ai/ha, read-out: Plant response rating (scale of 0 to 100), Lambsquarters
  pest or weed control at 31 g/ha: 10%
[7]; Chenopodium album, post-emergence, Postemergence, 62 g ai/ha, scale 0 to 100 (0 no effect, 100 complete control), read-out: Lambsquarters plant response rating
  pest or weed control at 62 g/ha: 20%
[7]; Chenopodium album, post-emergence, Postemergence, 125 g ai/ha, scale 0 to 100 (0 no effect, 100 complete control), read-out: Lambsquarters plant response rating
  pest or weed control at 125 g/ha: 20%
[7]; Chenopodium album, post-emergence, Postemergence, 250 g ai/ha, scale 0 to 100, read-out: Plant response rating, Lambsquarters
  pest or weed control at 250 g/ha: 25%
[8]; Amaranthus retroflexus, post-emergence, Postemergence, 31 g ai/ha, read-out: Plant response rating (scale of 0 to 100), Pigweed
  pest or weed control at 31 g/ha: 10%
[8]; Amaranthus retroflexus, post-emergence, Postemergence, 62 g ai/ha, scale 0 to 100 (0 no effect, 100 complete control), read-out: Pigweed plant response rating
  pest or weed control at 62 g/ha: 10%
[8]; Amaranthus retroflexus, post-emergence, Postemergence, 125 g ai/ha, scale 0 to 100 (0 no effect, 100 complete control), read-out: Pigweed plant response rating
  pest or weed control at 125 g/ha: 20%
[8]; Amaranthus retroflexus, post-emergence, Postemergence, 250 g ai/ha, scale 0 to 100, read-out: Plant response rating, Pigweed
  pest or weed control at 250 g/ha: 30%
[9]; Abutilon theophrasti, post-emergence, Postemergence, 31 g ai/ha, read-out: Plant response rating (scale of 0 to 100), Velvetleaf
  pest or weed control at 31 g/ha: 0%
[9]; Abutilon theophrasti, post-emergence, Postemergence, 62 g ai/ha, scale 0 to 100 (0 no effect, 100 complete control), read-out: Velvetleaf plant response rating
  pest or weed control at 62 g/ha: 0%
[9]; Abutilon theophrasti, post-emergence, Postemergence, 125 g ai/ha, scale 0 to 100 (0 no effect, 100 complete control), read-out: Velvetleaf plant response rating
  pest or weed control at 125 g/ha: 0%
[9]; Abutilon theophrasti, post-emergence, Postemergence, 250 g ai/ha, scale 0 to 100, read-out: Plant response rating, Velvetleaf
  pest or weed control at 250 g/ha: 20%
[10]; Cyperus, post-emergence, Postemergence, 31 g ai/ha, read-out: Plant response rating (scale of 0 to 100), Nutsedge, Yellow
  pest or weed control at 31 g/ha: 0%
[10]; Cyperus, post-emergence, Postemergence, 62 g ai/ha, scale 0 to 100 (0 no effect, 100 complete control), read-out: Nutsedge, Yellow plant response rating
  pest or weed control at 62 g/ha: 0%
[10]; Cyperus, post-emergence, Postemergence, 125 g ai/ha, scale 0 to 100 (0 no effect, 100 complete control), read-out: Nutsedge, Yellow plant response rating
  pest or weed control at 125 g/ha: 0%
[10]; Cyperus, post-emergence, Postemergence, 250 g ai/ha, scale 0 to 100, read-out: Plant response rating, Nutsedge, Yellow
  pest or weed control at 250 g/ha: 0%
